Assay results published in US20060069132A1, “Azolecarboxamide herbicides” (priority 2004, published 2006).
Where two headings read alike, the source gives them in different places.

Legend:
[1] = system: wild oat; assay: Test B postemergence herbicide test; type: in vivo, Avena fatua; conditions: Postemergence, scale 0 (no effect) to 100 (complete control); for Plant response rating, Oat, Wild: 500 g ai/ha, visual rating after 13 to 15 days
Summary of the method: (§1)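 Visual ratings, 0 (no effect) to 100 (complete control), made versus controls after 13–15 d greenhouse. Paddy plants treated at 2-leaf stage; postemergence plants at 1- to 4-leaf stage, 2–18 cm tall.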

[2] = system: barnyardgrass; assay: Test B flooded paddy test; type: in vivo, Echinochloa crus-galli; conditions: 1000 g ai/ha, visual rating, scale 0 to 100 (0 no effect, 100 complete control), 13 to 15 days
Summary of the method: as §1

[3] = system: giant foxtail; assay: Test B pre-/postemergence herbicide test; type: in vivo, Setaria faberi
Summary of the method: (§2)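 Formulation: non-phytotoxic solvent mix with surfactant. Timing: preemergence on seed and postemergence on 2–18 cm plants, applied concurrently. Readout after 13–15 d greenhouse: visual 0–100 control rating against controls.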

[4] = system: corn; assay: Test B pre-/postemergence herbicide test; type: in vivo, Zea mays
Summary of the method: as §2

[5] = system: velvetleaf; assay: Test B pre-/postemergence herbicide test; type: in vivo, Abutilon theophrasti
Summary of the method: as §2

[6] = system: blackgrass; assay: Test B postemergence herbicide test; type: in vivo, Alopecurus myosuroides; conditions: Postemergence, scale 0 (no effect) to 100 (complete control); for Plant response rating, Blackgrass: 500 g ai/ha, visual rating after 13 to 15 days
Summary of the method: as §1

[7] = system: lambsquarters; assay: Test B pre-/postemergence herbicide test; type: in vivo, Chenopodium album
Summary of the method: as §2

[8] = system: pigweed; assay: Test B pre-/postemergence herbicide test; type: in vivo, Amaranthus retroflexus
Summary of the method: as §2

[9] = system: morningglory; assay: Test B pre-/postemergence herbicide test; type: in vivo, Ipomoea coccinea
Summary of the method: (§3)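 Visual rating, 0 (no effect) to 100 (complete control), versus untreated controls after 13–15 d in greenhouse. Pre- and postemergence applications (postemergence plants 2–18 cm, 1–4 leaves); flooded paddy arm at 2-leaf stage. Compounds in non-phytotoxic solvent plus surfactant.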

[10] = system: small flower umbrella sedge; assay: Test B flooded paddy test; type: in vivo, Cyperus difformis; conditions: 1000 g ai/ha, visual rating, scale 0 to 100 (0 no effect, 100 complete control), 13 to 15 days
Summary of the method: as §1

[11] = system: barnyardgrass; assay: Test B pre-/postemergence herbicide test; type: in vivo, Echinochloa crus-galli
Summary of the method: as §3

[12] = system: large crabgrass; assay: Test B pre-/postemergence herbicide test; type: in vivo, Digitaria sanguinalis
Summary of the method: as §2

[13] = system: rice; assay: Test B flooded paddy test; type: in vivo, Oryza sativa; conditions: 1000 g ai/ha, visual rating, scale 0 to 100 (0 no effect, 100 complete control), 13 to 15 days
Summary of the method: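 Scale 0–100: zero equals no visible effect, 100 complete control, judged by eye relative to controls. Timing: 13 to 15 days in greenhouse post-treatment. Growth stage at spraying: two leaves (paddy) or one to four leaves, 2–18 cm (postemergence).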

[14] = system: ducksalad; assay: Test B flooded paddy test; type: in vivo, Heteranthera limosa; conditions: 1000 g ai/ha, visual rating, scale 0 to 100 (0 no effect, 100 complete control), 13 to 15 days
Summary of the method: as §1

[15] = system: cocklebur; assay: Test B pre-/postemergence herbicide test; type: in vivo, Xanthium strumarium
Summary of the method: as §3

[16] = Postemergence, 125 g ai/ha, scale 0 (no effect) to 100 (complete control)
[17] = Postemergence, 500 g ai/ha, visual rating after 13 to 15 days, scale 0 (no effect) to 100 (complete control)
[18] = Preemergence, 500 g ai/ha, scale 0 to 100
[19] = preemergence, 125 g ai/ha, 0 to 100 scale, 0 is no effect, 100 is complete control

## CCn1nc(C(C)(C)C)cc1C(=O)Nc1cc(C(=O)N(C)C)ccc1F [Compound 6, N-[5-[(dimethylamino)carbonyl]-2-fluorophenyl]-3-(1,1-dimethylethyl)-1-ethyl-1H-pyrazole-5-carboxamide]
[1]; Avena fatua, post-emergence, 336 h, 125 g ai/ha, read-out: Oat, Wild plant response rating
  pest or weed control at 125 g/ha: 10%
[1]
  Plant response rating, Oat, Wild: 70
[2]; Echinochloa crus-galli, 336 h, read-out: Barnyardgrass plant response rating
  pest or weed control at 1000 g/ha: 90%
[3]; Setaria faberi, post-emergence, 336 h, Postemergence, 125 g ai/ha, scale 0 (no effect) to 100 (complete control), read-out: Foxtail, Giant plant response rating
  pest or weed control at 125 g/ha: 10%
[3]; Setaria faberi, post-emergence, 336 h, Postemergence, 500 g ai/ha, visual rating after 13 to 15 days, scale 0 (no effect) to 100 (complete control), read-out: Plant response rating, Foxtail, Giant
  pest or weed control at 500 g/ha: 20%
[3]; Setaria faberi, pre-emergence, 336 h, Preemergence, 500 g ai/ha, scale 0 to 100, read-out: Foxtail, Giant plant response rating
  pest or weed control at 500 g/ha: 100%
[4]; Zea mays, post-emergence, Postemergence, 125 g ai/ha, scale 0 (no effect) to 100 (complete control), read-out: Corn plant response rating
  plant injury at 125 g/ha: 0%
[4]; Zea mays, post-emergence, Postemergence, 500 g ai/ha, visual rating after 13 to 15 days, scale 0 (no effect) to 100 (complete control)
  Corn plant response rating (crop injury, 0 = no effect, 100 = complete kill) at 500 g/ha: 60%
[4]; Zea mays, pre-emergence, Preemergence, 500 g ai/ha, scale 0 to 100, read-out: Corn plant response rating
  plant injury at 500 g/ha: 90%
[5]; Abutilon theophrasti, post-emergence, 336 h, Postemergence, 125 g ai/ha, scale 0 (no effect) to 100 (complete control), read-out: Velvetleaf plant response rating
  pest or weed control at 125 g/ha: 0%
[5]; Abutilon theophrasti, post-emergence, 336 h, Postemergence, 500 g ai/ha, visual rating after 13 to 15 days, scale 0 (no effect) to 100 (complete control), read-out: Plant response rating, Velvetleaf
  pest or weed control at 500 g/ha: 60%
[5]; Abutilon theophrasti, pre-emergence, 336 h, Preemergence, 500 g ai/ha, scale 0 to 100, read-out: Velvetleaf plant response rating
  pest or weed control at 500 g/ha: 100%
[6]; Alopecurus myosuroides, post-emergence, 336 h, 125 g ai/ha, read-out: Blackgrass plant response rating
  pest or weed control at 125 g/ha: 20%
[6]
  Plant response rating, Blackgrass: 90
[7]; Chenopodium album, post-emergence, 336 h, Postemergence, 125 g ai/ha, scale 0 (no effect) to 100 (complete control), read-out: Lambsquarters plant response rating
  pest or weed control at 125 g/ha: 30%
[7]; Chenopodium album, post-emergence, 336 h, Postemergence, 500 g ai/ha, visual rating after 13 to 15 days, scale 0 (no effect) to 100 (complete control), read-out: Plant response rating, Lambsquarters
  pest or weed control at 500 g/ha: 100%
[7]; Chenopodium album, pre-emergence, 336 h, Preemergence, 500 g ai/ha, scale 0 to 100, read-out: Lambsquarters plant response rating
  pest or weed control at 500 g/ha: 100%
[8]; Amaranthus retroflexus, post-emergence, 336 h, Postemergence, 125 g ai/ha, scale 0 (no effect) to 100 (complete control), read-out: Pigweed plant response rating
  pest or weed control at 125 g/ha: 20%
[8]; Amaranthus retroflexus, post-emergence, 336 h, Postemergence, 500 g ai/ha, visual rating after 13 to 15 days, scale 0 (no effect) to 100 (complete control), read-out: Plant response rating, Pigweed
  pest or weed control at 500 g/ha: 70%
[8]; Amaranthus retroflexus, pre-emergence, 336 h, Preemergence, 500 g ai/ha, scale 0 to 100, read-out: Pigweed plant response rating
  pest or weed control at 500 g/ha: 100%
[9]; Ipomoea, post-emergence, 336 h, Postemergence, 125 g ai/ha, scale 0 (no effect) to 100 (complete control), read-out: Morningglory plant response rating
  pest or weed control at 125 g/ha: 0%
[9]; Ipomoea, post-emergence, 336 h, Postemergence, 500 g ai/ha, visual rating after 13 to 15 days, scale 0 (no effect) to 100 (complete control), read-out: Plant response rating, Morningglory
  pest or weed control at 500 g/ha: 0%
[10]; Cyperus difformis, 336 h, read-out: Sedge, Umbrella plant response rating
  pest or weed control at 1000 g/ha: 90%
[11]; Echinochloa crus-galli, post-emergence, Postemergence, 125 g ai/ha, scale 0 (no effect) to 100 (complete control), read-out: Barnyardgrass plant response rating
  pest or weed control at 125 g/ha: 0%
[11]; Echinochloa crus-galli, post-emergence, Postemergence, 500 g ai/ha, visual rating after 13 to 15 days, scale 0 (no effect) to 100 (complete control), read-out: Plant response rating, Barnyardgrass
  pest or weed control at 500 g/ha: 80%
[11]; Echinochloa crus-galli, pre-emergence, Preemergence, 500 g ai/ha, scale 0 to 100, read-out: Barnyardgrass plant response rating
  pest or weed control at 500 g/ha: 100%
[12]; Digitaria sanguinalis, post-emergence, Postemergence, 125 g ai/ha, scale 0 (no effect) to 100 (complete control), read-out: Crabgrass, Large plant response rating
  pest or weed control at 125 g/ha: 20%
[12]; Digitaria sanguinalis, post-emergence, Postemergence, 500 g ai/ha, visual rating after 13 to 15 days, scale 0 (no effect) to 100 (complete control), read-out: Plant response rating, Crabgrass, Large
  pest or weed control at 500 g/ha: 30%
[12]; Digitaria sanguinalis, pre-emergence, Preemergence, 500 g ai/ha, scale 0 to 100, read-out: Crabgrass, Large plant response rating
  pest or weed control at 500 g/ha: 100%
[13]; Oryza sativa, 336 h, read-out: Rice plant response rating
  plant injury at 1000 g/ha: 80%
[14]; Heteranthera limosa, 336 h, read-out: Ducksalad plant response rating
  pest or weed control at 1000 g/ha: 90%
[15]; Xanthium strumarium, post-emergence, Postemergence, 125 g ai/ha, scale 0 (no effect) to 100 (complete control), read-out: Cocklebur plant response rating
  pest or weed control at 125 g/ha: 0%
[15]; Xanthium strumarium, post-emergence, Postemergence, 500 g ai/ha, visual rating after 13 to 15 days, scale 0 (no effect) to 100 (complete control), read-out: Plant response rating, Cocklebur
  pest or weed control at 500 g/ha: 80%
[15]; Xanthium strumarium, pre-emergence, Preemergence, 500 g ai/ha, scale 0 to 100, read-out: Cocklebur plant response rating
  pest or weed control at 500 g/ha: 100%

## CCCCn1nc(C(C)(C)C)cc1C(=O)Nc1cccc(C(=O)NCC)c1 [Compound 41]
[1]; 125 g ai/ha
  Oat, Wild plant response rating: 10
[1]
  Plant response rating, Oat, Wild: 10
[2]
  Barnyardgrass plant response rating: 50
[3]; [16]
  Foxtail, Giant plant response rating: 10
[3]; [17]
  Plant response rating, Foxtail, Giant: 20
[3]; [18]
  Foxtail, Giant plant response rating: 70
[3]; [19]
  Plant response rating, Foxtail, Giant: 10
[4]; [18]
  Corn plant response rating: 0
[5]; [17]
  Plant response rating, Velvetleaf: 20
[5]; [18]
  Velvetleaf plant response rating: 10
[5]; [19]
  Plant response rating, Velvetleaf: 0
[6]; 125 g ai/ha
  Blackgrass plant response rating: 10
[6]
  Plant response rating, Blackgrass: 20
[7]; [16]
  Lambsquarters plant response rating: 60
[7]; [17]
  Plant response rating, Lambsquarters: 70
[7]; [18]
  Lambsquarters plant response rating: 100
[7]; [19]
  Plant response rating, Lambsquarters: 80
[8]; [17]
  Plant response rating, Pigweed: 70
[8]; [18]
  Pigweed plant response rating: 70
[8]; [19]
  Plant response rating, Pigweed: 70
[9]; [18]
  Morningglory plant response rating: 10
[9]; [19]
  Plant response rating, Morningglory: 0
[10]
  Sedge, Umbrella plant response rating: 70
[11]; [16]
  Barnyardgrass plant response rating: 10
[11]; [17]
  Plant response rating, Barnyardgrass: 20
[11]; [18]
  Barnyardgrass plant response rating: 80
[12]; [16]
  Crabgrass, Large plant response rating: 20
[12]; [17]
  Plant response rating, Crabgrass, Large: 30
[12]; [18]
  Crabgrass, Large plant response rating: 100
[13]
  Rice plant response rating: 20
[14]
  Ducksalad plant response rating: 60
[15]; [16]
  Cocklebur plant response rating: 10
[15]; [17]
  Plant response rating, Cocklebur: 40
[15]; [18]
  Cocklebur plant response rating: 0
